Results on 21 compounds are retold here after US12503438B2, “Compounds for the treatment of kinase-dependent disorders” (Exelixis, Inc., priority 2019, dated 2025).

The target of this assay is T1, Mer (Homo sapiens, UniProt Q12866).
T1 construct: host or cells: 293A cells (Thermo Fisher #R70507)
T1 sequence (Q12866 21-999): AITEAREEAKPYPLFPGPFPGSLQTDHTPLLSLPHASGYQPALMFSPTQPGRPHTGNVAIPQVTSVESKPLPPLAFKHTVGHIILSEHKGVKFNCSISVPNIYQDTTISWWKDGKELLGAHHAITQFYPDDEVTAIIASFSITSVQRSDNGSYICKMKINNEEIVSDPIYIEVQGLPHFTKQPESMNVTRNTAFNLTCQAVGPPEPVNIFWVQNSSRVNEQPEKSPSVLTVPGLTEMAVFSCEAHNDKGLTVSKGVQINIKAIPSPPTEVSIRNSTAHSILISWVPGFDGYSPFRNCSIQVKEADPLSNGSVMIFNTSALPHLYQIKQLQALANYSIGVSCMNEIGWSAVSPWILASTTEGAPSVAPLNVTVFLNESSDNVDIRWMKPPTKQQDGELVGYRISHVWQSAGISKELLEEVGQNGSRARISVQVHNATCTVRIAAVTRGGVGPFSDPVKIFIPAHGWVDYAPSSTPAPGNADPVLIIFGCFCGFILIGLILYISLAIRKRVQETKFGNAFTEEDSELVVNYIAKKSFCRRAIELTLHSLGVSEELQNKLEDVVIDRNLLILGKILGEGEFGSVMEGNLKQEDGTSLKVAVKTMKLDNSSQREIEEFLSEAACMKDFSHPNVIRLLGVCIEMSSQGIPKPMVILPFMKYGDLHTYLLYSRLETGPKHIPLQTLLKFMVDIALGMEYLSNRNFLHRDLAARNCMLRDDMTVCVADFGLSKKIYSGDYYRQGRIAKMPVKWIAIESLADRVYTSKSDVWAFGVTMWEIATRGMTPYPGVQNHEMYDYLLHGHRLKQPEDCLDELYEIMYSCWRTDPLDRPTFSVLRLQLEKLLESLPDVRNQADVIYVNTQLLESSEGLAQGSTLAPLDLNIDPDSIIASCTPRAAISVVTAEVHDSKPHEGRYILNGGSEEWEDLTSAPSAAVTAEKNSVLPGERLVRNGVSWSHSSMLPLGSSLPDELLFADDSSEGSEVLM
The assay is described as follows: Mer autophosphorylation ELISA in transient transfected 293A cells. Conditions: cellular activity; MERTK-transfected 293A cells, phospho-Mer ELISA. Type of assay: cell-based. The protocol:
293A cells (Thermo Fisher #R70507) were seeded at 1.5×10^6 cells/well onto 100 mm dish (Greiner #664169), in DMEM (Thermo Fisher #11995-040) containing 10% FBS (Thermo Fisher #26140-079), 1% MEM NEAA (Thermo Fisher #11140-050), 1% GlutaMax (Thermo Fisher #35050-061), and 1% Penicillin Streptomycin (Thermo Fisher #15140-122). 293A cells were incubated at 37° C., 5% CO2 for 24 h and then transfected with 6 μg MERTK DNA (Genecopoeia #EX-Z8208-M02) using TransIT LT1 transfection reagent (Mirus-Bio #MIR2305). After 24 h incubation, the transfected 293A cells were seeded at 1×10^5 cells/well onto 96-well plates (Corning #3904) in DMEM growth medium overnight. Test compounds were serially diluted to produce an 8-point dose curve in fresh serum-free medium to a final concentration of 0.3% DMSO (vehicle) and added to the cells and incubated for 1 h. Cells were then immediately lysed with 150 μL of cold 1× lysis buffer [20 mM Tris, 137 mM sodium chloride, 2 mM EDTA, 10% glycerol, 1% NP-40 alternative, 1 mM activated sodium orthovanadate, 1 mM PefaBloc SC (Sigma-Aldrich #11429868001), protease/phosphatase inhibitor tablet (Thermo Fisher #A32959)]. Lysates were clarified by centrifugation and 50 μL/well added into the human phospho-Mer DuoSet IC ELISA (R&D Systems #DYC2579-2). Assay was performed according to manufacturer's instructions and sample phospho-Mer concentrations were extrapolated using human phospho-Mer control (R&D Systems #841793) as a standard. Positive control wells (100% activity) contained DMSO-treated cell lysates. Negative control wells (0% activity) contained reference inhibitor-treated cell lysates. IC50 values were calculated by nonlinear regression analysis using a 4-parameter logistic curve fit in ActivityBase XE (IDBS).
As to `CN1CCC(n2cc(-c3ccc4c(Oc5ccc(NC(=O)C6(C(=O)Nc7ccc(F)cc7)CC6)cc5)ccnc4c3)cn2)CC1` [Compound 61, 1-N′-(4-Fluorophenyl)-1-N-[4-[7-[1-(1-methylpiperidin-4-yl)pyrazol-4-yl]quinolin-4-yl]oxyphenyl]cyclopropane-1,1-dicarboxamide], the concentration for half-maximal inhibition (IC50) is no more than 10 nM. For `O=C(Nc1ccc(F)cc1)C1(C(=O)Nc2ccc(Oc3ccnc4cc(-c5cnn(CCN6CCOCC6)c5)ccc34)cc2)CC1` [Compound 19, 1-N′-(4-Fluorophenyl)-1-N-[4-[7-[1-(2-morpholin-4-ylethyl)pyrazol-4-yl]quinolin-4-yl]oxyphenyl]cyclopropane-1,1-dicarboxamide], the IC50 was no more than 10 nM. The result for `O=C(Nc1ccc(F)cc1)C1(C(=O)Nc2cc(F)c(Oc3ccnc4cc(-c5cnn(C(F)F)c5)ccc34)cc2F)CC1` [Compound 118, 1-N′-[4-[7-[1-(Difluoromethyl)pyrazol-4-yl]quinolin-4-yl]oxy-2,5-difluorophenyl]-1-N-(4-fluorophenyl)cyclopropane-1,1-dicarboxamide] reads 10 to 100 nM; that for `O=C(Nc1ccc(F)cc1)C1(C(=O)Nc2ccc(Oc3ccnc4cc(-c5ccccn5)ccc34)cc2)CC1` [Compound 85, 1-N′-(4-Fluorophenyl)-1-N-[4-(7-pyridin-2-ylquinolin-4-yl)oxyphenyl]cyclopropane-1,1-dicarboxamide], 10 to 100 nM. The result for `O=C(Nc1ccc(F)cc1)C1(C(=O)Nc2ccc(Oc3ccnc4cc(-c5ncco5)ccc34)cc2)CC1` [Compound 66, 1-N′-(4-Fluorophenyl)-1-N-[4-[7-(1,3-oxazol-2-yl)quinolin-4-yl]oxyphenyl]cyclopropane-1,1-dicarboxamide] reads 10 to 100 nM; that for `CC(C)n1cc(-c2ccc3c(Oc4ccc(NC(=O)C5(C(=O)Nc6ccc(F)cc6)CC5)cc4)ccnc3c2)cn1` [Compound 21, 1-N′-(4-Fluorophenyl)-1-N-[4-[7-(1-propan-2-ylpyrazol-4-yl)quinolin-4-yl]oxyphenyl]cyclopropane-1,1-dicarboxamide], 10 to 100 nM. The result for `O=C(Nc1ccc(F)cc1)C1(C(=O)Nc2ccc(Oc3ccnc4cc(-c5cnn(CC(F)(F)F)c5)ccc34)cc2)CC1` [Compound 16, 1-N′-(4-Fluorophenyl)-1-N-[4-[7-[1-(2,2,2-trifluoroethyl)pyrazol-4-yl]quinolin-4-yl]oxyphenyl]cyclopropane-1,1-dicarboxamide] reads 10 to 100 nM.

`O=C(Nc1ccc(F)cc1)C1(C(=O)Nc2ccc(Oc3ccnc4cc(-c5cccnc5O)ccc34)cc2)CC1` [Compound 52, 1-N′-(4-Fluorophenyl)-1-N-[4-[7-(2-hydroxypyridin-3-yl)quinolin-4-yl]oxyphenyl]cyclopropane-1,1-dicarboxamide] showed an IC50 of 100 to 300 nM. As for `CC(=O)N1CCC(n2cc(-c3ccc4c(Oc5ccc(NC(=O)C6(C(=O)Nc7ccc(F)cc7)CC6)cc5)ccnc4c3)cn2)CC1` [Compound 62, 1-N-[4-[7-[1-(1-Acetylpiperidin-4-yl)pyrazol-4-yl]quinolin-4-yl]oxyphenyl]-1-N′-(4-fluorophenyl)cyclopropane-1,1-dicarboxamide], the figure is no more than 10 nM; as for `O=C(Nc1ccc(F)cc1)C1(C(=O)Nc2ccc(Oc3ccnc4cc(-c5cnoc5)ccc34)cc2)CC1` [Compound 57, 1-N′-(4-Fluorophenyl)-1-N-[4-[7-(1,2-oxazol-4-yl)quinolin-4-yl]oxyphenyl]cyclopropane-1,1-dicarboxamide], 10 to 100 nM; as for `O=C(Nc1ccc(F)cc1)C1(C(=O)Nc2ccc(Oc3ccnc4cc(-c5cccnc5)ccc34)c(F)c2)CC1` [Compound 113, 1-N-(4-Fluorophenyl)-1-N′-[3-fluoro-4-(7-pyridin-3-ylquinolin-4-yl)oxyphenyl]cyclopropane-1,1-dicarboxamide], 10 to 100 nM.

The compound `O=C(Nc1ccc(F)cc1)C1(C(=O)Nc2ccc(Oc3ccnc4cc(-c5cncs5)ccc34)cc2)CC1` [Compound 116, 1-N′-(4-Fluorophenyl)-1-N-[4-[7-(1,3-thiazol-5-yl)quinolin-4-yl]oxyphenyl]cyclopropane-1,1-dicarboxamide] returned a concentration for half-maximal inhibition (IC50) of 10 to 100 nM. The result for `CS(=O)(=O)n1cc(-c2ccc3c(Oc4ccc(NC(=O)C5(C(=O)Nc6ccc(F)cc6)CC5)cc4)ccnc3c2)cn1` [Compound 79, 1-N′-(4-Fluorophenyl)-1-N-[4-[7-(1-methylsulfonylpyrazol-4-yl)quinolin-4-yl]oxyphenyl]cyclopropane-1,1-dicarboxamide] reads 10 to 100 nM. The result for `Cc1cc2c(Oc3cc(F)c(NC(=O)C4(C(=O)Nc5ccc(F)cc5)CC4)cc3F)ccnc2cc1-c1ncc[nH]1` [Compound 121, 1-N′-[2,5-Difluoro-4-[7-(1H-imidazol-2-yl)-6-methylquinolin-4-yl]oxyphenyl]-1-N-(4-fluorophenyl)cyclopropane-1,1-dicarboxamide] reads 10 to 100 nM. As for `Cc1cc2c(Oc3ccc(NC(=O)C4(C(=O)Nc5ccc(F)cc5)CC4)cc3F)ccnc2cc1-c1ncc[nH]1` [Compound 122, 1-N′-[3-Fluoro-4-[7-(1H-imidazol-2-yl)-6-methylquinolin-4-yl]oxyphenyl]-1-N-(4-fluorophenyl)cyclopropane-1,1-dicarboxamide], the figure is 10 to 100 nM; as for `O=C(Nc1ccc(F)cc1)C1(C(=O)Nc2ccc(Oc3ccnc4cc(-c5ccc(F)nc5)ccc34)cc2)CC1` [Compound 41, 1-N′-(4-Fluorophenyl)-1-N-[4-[7-(6-fluoropyridin-3-yl)quinolin-4-yl]oxyphenyl]cyclopropane-1,1-dicarboxamide], 10 to 100 nM. In turn, `Cn1ccc(-c2ccc3c(Oc4ccc(NC(=O)C5(C(=O)Nc6ccc(F)cc6)CC5)cc4)ccnc3c2)cc1=O` [Compound 117, 1-N′-(4-Fluorophenyl)-1-N-[4-[7-(1-methyl-2-oxopyridin-4-yl)quinolin-4-yl]oxyphenyl]cyclopropane-1,1-dicarboxamide] registered an IC50 of 10 to 100 nM. The result for `CC1Cc2cc(F)ccc2N1C(=O)C1(C(=O)Nc2ccc(Oc3ccnc4cc(-c5cnn(C)c5)ccc34)cc2)CC1` (stereo not drawn) [Compound 80, 1-(5-Fluoro-2-methyl-2,3-dihydroindole-1-carbonyl)-N-[4-[7-(1-methylpyrazol-4-yl)quinolin-4-yl]oxyphenyl]cyclopropane-1-carboxamide] reads greater than 300 nM; that for `COc1cc2c(Oc3ccc(NC(=O)C4(C(=O)Nc5ccc(F)cc5)CC4)cc3)ccnc2cc1-c1cnn(C)c1` [Compound 76, 1-N′-(4-Fluorophenyl)-1-N-[4-[6-methoxy-7-(1-methylpyrazol-4-yl)quinolin-4-yl]oxyphenyl]cyclopropane-1,1-dicarboxamide], no more than 10 nM.

Regarding `O=C(Nc1ccc(F)cc1)C1(C(=O)Nc2ccc(Oc3ccnc4cc(-c5cnn(CCF)c5)ccc34)cc2)CC1` [Compound 14, 1-N-[4-[7-[1-(2-Fluoroethyl)pyrazol-4-yl]quinolin-4-yl]oxyphenyl]-1-N′-(4-fluorophenyl)cyclopropane-1,1-dicarboxamide], the IC50 was no more than 10 nM. Compound `Cc1cc2c(Oc3ccc(NC(=O)C4(C(=O)Nc5ccc(F)cc5)CC4)cc3)ccnc2cc1-c1cnn(C)c1` [Compound 78, 1-N′-(4-Fluorophenyl)-1-N-[4-[6-methyl-7-(1-methylpyrazol-4-yl)quinolin-4-yl]oxyphenyl]cyclopropane-1,1-dicarboxamide] registered a 50% inhibitory concentration (IC50) of 10 to 100 nM.
